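Where inhibition never reached the appropriate level, the endpoint shown equals the highest concentration tested. Otherwise, values were interpolated linearly from a five-concentration, 48-hour dose response in 96-well plates. GI50: concentration for 50% inhibition of growth.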 Active and inactive are the calls of the source. Cut-off read from the data, not from the text of the source: active = GI50 up to about 1.1 µM and inactive = higher.
Columns and labels:
Assay in all cases: NCI-60 cell line screen, 48 h
CAKI-1 = tested on: CAKI-1
CCRF-CEM = tested on: CCRF-CEM
DMS-114 = tested on: DMS-114
EKVX = tested on: EKVX
HCC 2998 = tested on: HCC 2998
HOP-62 = tested on: HOP-62
K562 = tested on: K562
NCI-H226 = tested on: NCI-H226
NCI-H23 = tested on: NCI-H23
NCI-H460 = tested on: NCI-H460
OVCAR-5 = tested on: OVCAR-5
RXF 393 = tested on: RXF 393
SF-268 = tested on: SF-268
SF-295 = tested on: SF-295
SF-539 = tested on: SF-539
SK-MEL-2 = tested on: SK-MEL-2
SK-OV-3 = tested on: SK-OV-3
TK-10 = tested on: TK-10
U-251 = tested on: U-251
UO-31 = tested on: UO-31

Measured: GI50

C=CCN1C(=O)NC(=O)/C(=C/c2c3ccccc3cc3ccccc23)C1=O
inactive: CAKI-1 19.5 µM | CCRF-CEM 26.3 µM | DMS-114 19.1 µM | EKVX 25.5 µM | HCC 2998 14.8 µM | HOP-62 17.3 µM | K562 20.8 µM | NCI-H226 26.3 µM | NCI-H23 > 10 µM | NCI-H460 19.1 µM | OVCAR-5 20.5 µM | RXF 393 15.3 µM | SF-268 24.5 µM | SF-295 17.4 µM | SF-539 16.7 µM | SK-MEL-2 19.6 µM | SK-OV-3 29.9 µM | TK-10 20 µM | U-251 16.7 µM | UO-31 20.6 µM

CN1Cc2ccccc2C2(COc3ccccc3C2=O)C1 (stereo not given)
inactive: CAKI-1 > 100 µM | CCRF-CEM 74.3 µM | DMS-114 > 100 µM | EKVX > 100 µM | HCC 2998 > 100 µM | HOP-62 > 100 µM | K562 75.2 µM | NCI-H226 35.7 µM | NCI-H23 > 100 µM | NCI-H460 > 100 µM | OVCAR-5 > 100 µM | RXF 393 > 100 µM | SF-268 > 100 µM | SF-295 > 100 µM | SF-539 > 100 µM | SK-MEL-2 > 100 µM | SK-OV-3 > 100 µM | TK-10 > 100 µM | U-251 > 100 µM | UO-31 57.4 µM
